For one assay, the system named is IL-10 knockout mice. Nature of the assay: Effect on colitis in IL-10 knockout mice (histological score of large intestine). Format: in vivo, B6.129P2-IL10<tm1Cgn>/J (IL-10 knockout) mice. Conditions: 0.1 mg/kg orally once a day for 4 weeks; sum of proximal, middle and distal large intestine scores; average ± standard error. The procedure:
B6.129P2-IL10^<tm1Cgn>/J (IL-10 knockout) mice (male, 5-6 week old) were obtained for the test. KRP-203 dissolved in distilled water was orally administered at a dose of 0.1 mg/kg once a day for 4 weeks, starting 8 weeks after the animals were obtained. One group was administered distilled water alone as a placebo. Following the administration period, the animals were dissected to remove large intestine, which was then fixed in formalin. Subsequently, tissue slices were prepared from the formalin-fixed large intestine and were stained with hematoxylin and eosin. The proximal, middle, and distal segments of the large intestine were then histologically scored according to the standard procedure (Berg D J, et al., Gastroenterology, 123: 1527-1542 (2002)). The scores for the three segments were added together to determine the histological scores for individual animals. The results are given in average ±standard error.

In assay [1] the test system is Dextran Sodium Sulfate-Induced Colitis in Mice. Nature of the assay: Dextran sodium sulfate-induced colitis in mice. Format: in vivo, BALB/C male mice. Conditions: for Length of large intestine / myeloperoxidase activity in large intestine: DSS colitis, average ± standard error. How it is done:
Colitis was induced in BALB/C male mice by allowing animals To drink a5% aqueous solution of dextran sodium sulfate (DSS) (average molecular weight=5000) for 7 days [Kitajima, S. et. al., Exp Anim, Vol. 49, No. 1: 9-15 (2000)]. KRP-203 dissolved in distilled water (at 0.01, 0.03 and 0.1 mg/kg) was orally administered once a day for 8 days, starting the day before the administration of DSS solution. One group was administered distilled water as a placebo.
8 days after the start of the DSS period, mice were anesthetized With diethylether and sacrificed by cervical dislocation. The large intestine (the segment from colon to anus) was removed from each animal. Because it is known that the ingestion of DSS solution causes colitis in mice that causes a decrease in the length of large intestine [Okayasu, I. et. al., Gastroenterology, Vol. 98: 694-702 (1990)], the length of the large intestine from the colon to anus was measured with a caliper. The large intestine was then cut open longitudinally to expose the lumen and the content was washed off with physiological saline. The specimens were assayed and compared for the activity of myeloperoxidase, a marker of inflammation in colitis [Grisham, M B. et. al., Methods Enzymol, Vol. 186: 729-742 (1990)]. […]
Tacrolimus was suspended in a 0.5% aqueous solution of carboxymethylcellulose sodium (CMC-Na) (at 3 mg/kg) and was administered once a day for 8 days, starting the day before the start of the DSS period. One group was administered 0.5% aqueous CMC-Na solution as a placebo. The increase in the myeloperoxidase activity in large intestine was suppressed by 37% in the 3 mg/kg group as compared to the placebo group.

Setting [2] is: 0.01 mg/kg orally once a day for 8 days.
The mark [3] stands for this setting: 0.03 mg/kg orally once a day for 8 days.
[4] abbreviates: 0.1 mg/kg orally once a day for 8 days.

SMILES strings stand for the structures. Structures can show the parent of a compound that is named as a salt.

For the molecule `NC(CO)(CO)CCc1ccc(Sc2cccc(OCc3ccccc3)c2)cc1Cl` [KRP-203, 2-amino-2-[4-(3-benzyloxyphenylthio)-2-chlorophenyl]ethyl-1,3-propanediol hydrochloride], the “Histological Score” value in the assay on IL-10 knockout mice amounted to 0.3 ± 0.2. The “suppression of the increase in the myeloperoxidase activity in large intestine as compared to the placebo group” value in assay [1] (0.01 mg/kg group) was 51%; in assay [1] (0.03 mg/kg group) it was 69%; in assay [1] (0.1 mg/kg group), 62%. The figures for the “Length of large intestine” value in assay [1] (setting [2]), in assay [1] (setting [3]) and in assay [1] (setting [4]) were 67.4 ± 1.4 mm, 72.7 ± 1.5 mm and 71.4 ± 1.4 mm, respectively. The “myeloperoxidase activity in large intestine” value in assay [1] (setting [2]) was determined as 55.8 ± 16.2 U/g protein; in assay [1] (setting [3]), 36.8 ± 5.9 U/g protein; in assay [1] (setting [4]), 44.4 ± 6.4 U/g protein.
As for `C=CC[C@@H]1/C=C(\C)C[C@H](C)C[C@H](OC)[C@H]2O[C@@](O)(C(=O)C(=O)N3CCCC[C@H]3C(=O)O[C@H](/C(C)=C/[C@@H]3CC[C@@H](O)[C@H](OC)C3)[C@H](C)[C@@H](O)CC1=O)[C@H](C)C[C@@H]2OC` [Tacrolimus, tacrolimus, reference compound], the “suppression of the increase in the myeloperoxidase activity in large intestine as compared to the placebo group” value in assay [1] (3 mg/kg group, suspended in 0.5% CMC-Na, once a day for 8 days) is recorded as 37%.
